Columns and labels:
MV4-11 [1] = assay: Surface CD11b by FACS in MV4-11; type: cell-based; conditions: single agent, 72 h
Method: (§1) The distribution of cells among G0/G1 phase, G2/M phase, S phase and subG1 phase was determined. […] The relative fraction of cells that were live, in early apoptosis, in late apoptosis, or dead was then determined.
(§2) MV4-11 cells were treated with Compound E or with Compound A or with Compound B as single agent or in combination with azacitidine at indicated doses. FIGS. 12A, 12C, and 12E show surface levels of CD11b determined by FACS at 72 h post-treatment. FIGS. 12B, 12D, and 12F show assessment of apoptosis by FACS (as in, e.g., FIG. 9C) at 96 h post-treatment.
(§3) FIG. 17. […] (A) Indicated AML cell lines were exposed to increasing concentrations of Compound J to confirm their sensitivity to HDAC1/2 inhibition. (B-D) MV4-11 cells were treated with indicated concentrations of compounds. (B) Surface levels of myeloid differentiation marker CD11b were determined by FACS at 72 h post-treatment. […] (C) Cell cycle was assessed by flow cytometry after incorporation of EdU and staining with Far Red at 72 h post-treatment. The distribution of cells among G0/G1 phase, G2/M phase, S phase and subG1 phase was determined. […] (D) Apoptosis was assessed by flow cytometry via measuring Annexin V binding and cellular permeability to propidium iodide at 96 h post-treatment. The relative fraction of cells that were live, in early apoptosis, in late apoptosis or dead was then determined.

[2] = tested on: HDAC1, HDAC2, HDAC3 and HDAC6; assay: HDAC selectivity of the inhibitor panel; type: biochemical; conditions: HDAC isoform(s) the inhibitor is selective for
Method: Compounds for testing are diluted in DMSO to 50 fold the final concentration and a ten point three fold dilution series is made. The compounds are diluted in assay buffer (50 mM HEPES, pH 7.4, 100 mM Kill, 0.001% Tween-20, 0.05% BASE, 20 μM TEC) to 6 fold their final concentration. The HDAC enzymes (purchased from BPS Biosciences) are diluted to 1.5 fold their final concentration in assay buffer. The dipeptide substrate and trypsin at 0.05 μM final concentration are diluted in assay buffer at 6 fold their final concentration. The final enzyme concentrations to use in these assays are 3.3 ng/ml (HDAC1), 0.2 ng/ml (HDAC2), 0.08 ng/ml (HDAC3) and 2 ng/ml (HDAC6). The final substrate concentrations to use are 16 μM (HDAC1), 10 μM (HDAC2), 17 μM (HDAC3) and 14 μM (HDAC6). Five μ1 of compound and 20 μl of enzyme are added to wells of a black, opaque 384 well plate in duplicate. Enzyme and compound are incubated together at room temperature for 10 min. Five μ1 of substrate is added to each well, the plate is shaken for 60 seconds and placed into a Victor 2 microliter plate reader. The development of fluorescence is monitored for 60 min. and the linear rate of the reaction is calculated. The IC50 is determined using Graph Pad Prism by a four parameter curve fit.
The following HDAC inhibitors were used to evaluate the relationship between HDAC selectivity and the viability of AML cell lines upon exposure to the HDAC inhibitor: […]

[3] = tested on: HL-60, NB4, MV4-11, Kasumi-1, THP-1, and MOLM-13; assay: Single agent activity on viability in AML cell lines; type: cell-based; conditions: for viability IC50 relative to HDAC selective range: 72 hours, six AML cell lines
Method: FIGS. 3A-D show the single agent activity on viability in AML cell lines. Briefly, each of the following cell lines: HL-60, THP-1, MV-4-11, Kasumi-1, NB4, and MOLM-13 were exposed to increasing concentrations of either Compound B (FIG. 3A), Compound A (FIG. 3B), Compound E (FIG. 3C), or azacitidine (FIG. 3D) to determine their response to drug treatment. […] The panel of cell lines was also treated with azacitidine to measure their sensitivity.
FIGS. 8A-F show the single agent activity on viability in AML cell lines. […] Viability was calculated as a percentage of control (DMSO treated cells). Growth inhibition curves were generated using GraphPad Prism 6.
FIG. 17. […] (B-D) MV4-11 cells were treated with indicated concentrations of compounds. (B) Surface levels of myeloid differentiation marker CD11b were determined by FACS at 72 h post-treatment. […] (C) Cell cycle was assessed by flow cytometry after incorporation of EdU and staining with Far Red at 72 h post-treatment. The distribution of cells among G0/G1 phase, G2/M phase, S phase and subG1 phase was determined. […] (D) Apoptosis was assessed by flow cytometry via measuring Annexin V binding and cellular permeability to propidium iodide at 96 h post-treatment. The relative fraction of cells that were live, in early apoptosis, in late apoptosis or dead was then determined.

[4] = tested on: bone marrow samples derived from AML patients; assay: Primary AML sample colony formation assay; type: cell-based; conditions: Homo sapiens, 336 h; 6 bone marrow samples from AML patients; 14 days; single agent; read-out: median IC50, colony formation
Method: (A) 6 bone marrow samples derived from AML patients were cultured in methylcellulose-based medium and treated with increasing concentrations of Compound A, Compound J and azacitidine for 14 days when the colonies reach reasonable size. IC50 values for each drug are plotted. […] IC50 values were plotted for each patient sample.

MV4-11 [5] = assay: Apoptosis by Annexin V / propidium iodide flow cytometry in MV4-11; type: cell-based; conditions: single agent, 96 h
Method: as §1, §2, §3

[6] = tested on: AML blast freshly derived from bone marrow of AML patients; assay: Ex vivo proliferation of AML blast freshly derived from bone marrow; type: cell-based; conditions: Homo sapiens; 5 bone marrow samples from AML patients; flow cytometry at 96 h; single agent; read-out: median IC50, live AML cells
Method: (A-B), 5 bone marrow samples derived from AML patients were treated with increasing concentrations of azacitidine, Compound A and Compound J and live AML cells were quantified by flow cytometry at 96 h. IC50 values (A) and AUC values (B) were plotted. […] The relative potency of the three drugs are Compound J>azacitidine>Compound A, consistent with the result in FIG. 2. (C) 5 bone marrow samples derived from AML patients were treated with increasing doses of azacitidine with Compound J and live AML cells were quantified by flow cytometry at 96 h. The combination index (Comb IDX) were calculated and median Comb IDX values were plotted.

MV4-11 [7] = assay: Cell cycle by flow cytometry (EdU, Far Red) in MV4-11; type: cell-based; conditions: single agent, 72 h
Method: as §1, §3

Kasumi-1 [8] = assay: Kasumi-1 cell cycle by propidium iodide staining (sub-G1); type: cell-based; conditions: 72 hours, increasing concentrations
Method: HDAC inhibition causing AML cell death (apoptosis) was measured by staining the AML cells with propidium iodide after the cells were exposed to different concentrations of the HDAC inhibitors. Four distinct cell populations, G1, S, G2, and sub-G1, were separated and quantified based on their propidium iodide staining patterns. The sub-G1 cells are those dying or dead cells, and the percentage of this population was a reflection of the tested compound cytotoxicity.

AML1/ETO fusion protein = AML1/ETO fusion protein Western blot in Kasumi-1 cells; type: cell-based; conditions: 24 hours
Method: One type of AML has a signature chromosome translocation t(8:21) and therefore expression of a unique fusion protein AML1/ETO. […] In this study, Kasumi-1 cells were exposed to different concentrations of the HDAC inhibitor Compound A, or another HDAC1/2/6 selective inhibitor Compound G (data not shown), for 24 hours. The whole cell lysates were separated by SDS-PAGE (SDS-polyacrylamide gel electrophoresis) and transferred to a membrane (Western blot). The AML1/ETO fusion protein was detected on the membrane using an AML1 specific antibody.

HL-60, Kasumi-1 and NB4 = assay: Apoptosis by Annexin V / propidium iodide flow cytometry in three AML cell lines; type: cell-based; conditions: single agent; 96 hours; HL-60, Kasumi-1, NB4
Method: (§4) Briefly, the AML cell lines HL-60 (FIGS. 4A and 4D), Kasumi-1 (FIGS. 4B and 4E) and NB4 (FIGS. 4C and 4F) were treated with the indicated concentrations of compounds. In FIGS. 4A-C, surface levels of myeloid differentiation marker CD11b were determined by FACS at 72 hours post-treatment. […] In FIGS. 4D-F, apoptosis was assessed by flow cytometry by measuring Annexin V binding and cellular permeability to propidium iodide at 96 hours post-treatment. The relative fraction of cells that were alive, in early apoptosis, in late apoptosis, or dead was then determined.
FIGS. 10A-F show the treatment of the following AML cell lines: Kasumi-1 (FIGS. 10A and 10B), HL-60 (FIGS. 10C and 10D) and NB4 (FIGS. 10E and 10F), with indicated doses of compounds. FIGS. 10A, 10C, and 10E show surface levels of myeloid differentiation marker CD11b determined by FACS at 72 h post-treatment. […] FIGS. 10B, 10D, and 10F show the assessment of apoptosis by FACS (see, e.g., FIG. 9C).

GATA2 = GATA2 expression in MV4-11 AML cell line; type: cell-based; conditions: single agent at 1 uM, 48 h and 72 h
Method: FIG. 16. […] (A-B) MV4-11 cells were plated at 2×10^5 cells/ml at indicated doses for 48 h and 72 h. RNA was prepared and analyzed for GATA2 and GAPDH as internal control.

NB4 = assay: Surface CD11b by FACS in NB4; type: cell-based; conditions: single agent, 72 hours
Method: as §4
FIGS. 7A-F show the combination of HDAC inhibitors and azacitidine in the NB4 cell line. Briefly, cells were treated with DMSO, Compound B, Compound A, or Compound E as single agent or in combination with azacitidine at the indicated concentrations. Surface levels of CD11b were determined 72 hours post-treatment (FIGS. 7A, 7C, 7E), and apoptosis was assessed 96 hours post-treatment (FIGS. 7B, 7D, 7F).

MV4-11 cells = assay: MV4-11 tumor growth and survival in Ncr nu/nu mice; type: in vivo; conditions: single agent azacitidine 5 mg/kg IV q3d; MV4-11 in Ncr nu/nu mice
Method: Ncr nu/nu mice implanted with MV4-11 cells were treated with vehicle, azacitidine (5 mg/kg IV q3d), or azacitidine (5 mg/kg IV q3d) plus Compound A (50 mg/kg IP 5/2/5/2/5/2/5) for up to 4 weeks. (A) Tumor volume was measured twice weekly and the mean tumor volume±SD is plotted. (B) Fold tumor volume change on day 19 relative to day 1 is plotted. (C) Survival curve was plotted.

HL-60 = assay: Surface CD11b by FACS in HL-60; type: cell-based; conditions: single agent, 72 hours
Method: as §4
FIGS. 5A-F show the combination of HDAC inhibitors and azacitidine in the HL-60 cell line. Briefly, cells were treated with DMSO, Compound B, Compound A, or Compound E as a single agent or in combination with azacitidine for 96 hours. Surface levels of CD11b (FIGS. 5A, 5C, 5E) and apoptosis (FIGS. 5B, 5D, 5F) was assessed by flow cytometry, as in FIG. 4.

Kasumi-1 [9] = assay: Surface CD11b by FACS in Kasumi-1; type: cell-based; conditions: single agent, 72 hours
Method: as §4
Briefly, cells were treated with DMSO, Compound B, Compound A, or Compound E as a single agent or in combination with azacitidine at the indicated concentrations. Surface levels of CD11b were determined 72 hours post-treatment (FIGS. 6A, 6C, 6E), and apoptosis was assessed 96 hours post-treatment (FIGS. 6B, 6D, 6F).

SMILES	percentage of CD11b positive cells (MV4-11 [1])	Selectivity [2]	viability IC50 relative to HDAC selective range [3]	IC50 [4]	apoptosis relative to control cells (MV4-11 [5])	IC50 [6]	cell cycle arrest (MV4-11 [7])	also measured
O=C(NO)c1cnc(NC2(c3cccc(F)c3)CCCCC2)nc1 [Compound C, 2-((1-(3-fluorophenyl)cyclohexyl)amino)-N-hydroxypyrimidine-5-carboxamide]	no effect on CD11b positive cells	HDAC6	beyond its selective range	–	–	–	–	–
Nc1cc(F)ccc1NC(=O)c1cnc2c(C3CC3)c(N3CCNCC3)ccc2c1 [Compound H]	increased the percentage of CD11b positive cells	HDAC3	beyond its selective range	–	–	–	–	–
Nc1ccc(-c2cccs2)cc1NC(=O)c1ccc2nc(N3CCNCC3)ccc2c1 [Compound J, N-(2-amino-5-(thiophen-2-yl)phenyl)-2-(piperazin-1-yl)quinoline-6-carboxamide]	highest potency increasing percentage of CD11b positive cells	–	–	2950 nM	increase in apoptosis relative to control cells	600 nM	induced cell cycle arrest as well as apoptosis	cell viability ([3]; AML cell lines): reduces cell viability
O=C(NO)c1cnc(NC2(c3ccccc3)CCN(C(=O)Nc3ccccc3)CC2)nc1 [Compound G, N-hydroxy-2-((4-phenyl-1-(phenylcarbamoyl)piperidin-4-yl)amino)pyrimidine-5-carboxamide]	increased the percentage of CD11b positive cells	HDAC6 (1/2)	has some inhibitory effects on HDAC1/2 at their IC50 values	–	increase in apoptosis relative to control cells	–	induced cell cycle arrest	sub-G1 cells (dying or dead cells) (Kasumi-1 [8]): Increased amount of sub-G1 cells; amount of AML1/ETO fusion protein (AML1/ETO fusion protein): decrease the amount of this fusion protein in a concentration dependent manner
Nc1ncn([C@@H]2O[C@H](CO)[C@@H](O)[C@H]2O)c(=O)n1 [azacitidine, 4-amino-1-β-D-ribofuranosyl-S-triazin-2(1H)-one, reference compound]	–	–	–	8110 nM	–	2100 nM	–	apoptosis relative to control cells (HL-60, Kasumi-1 and NB4): increase in apoptosis relative to control cells; GATA2 level (GATA2): induced GATA2 level; CD11b positive cells (NB4): minimal effects; survival (MV4-11 cells): increased survival; tumor growth (MV4-11 cells): reduced tumor growth; CD11b positive cells (HL-60): increased CD11b positive cells; CD11b positive cells (Kasumi-1 [9]): increased CD11b positive cells

Source: US9833466B2, “Treatment of leukemia with histone deacetylase inhibitors” (Acetylon Pharmaceuticals Inc., priority 2014, dated 2017)
